Patent publication US11813306B2, “Cyclic tetramer compounds as proprotein convertase subtilisin/kexin type 9 (PCSK9) inhibitors for the treatment of metabolic disorders” (NOVARTIS AG, priority 2018, dated 2023)
Where two headings read alike, the source gives them in different places.

How the values were obtained:
[1] = amide bond, DCM
[2] = target: human PCSK9 (Homo sapiens, UniProt Q8NBP7); experiment: PCSK9 ligand binding assay (TR-FRET): interference with binding of human PCSK9 to human LDLR; details: for IC50: Human PCSK9 Alexa Fluor 647 / Human LDLR extracellular domain-Europium Kryptate; for Max % inhibition: efficacy (Amax), 100% = 1 uM unlabeled human PCSK9, 0% = DMSO
Procedure, shortened: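 Read-out was TR-FRET ratio (665 nm over 615 nm, 330 nm excitation) between Alexa Fluor 647-human PCSK9 (16 nM added) and Europium Kryptate-human LDLR ectodomain (4 nM added). Compound and PCSK9 were mixed 30 min before LDLR, then incubated 2 h. Inhibition was normalised to DMSO and unlabelled-PCSK9 controls, giving IC50 and Amax.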

Chain of human PCSK9 (Q8NBP7 153-692): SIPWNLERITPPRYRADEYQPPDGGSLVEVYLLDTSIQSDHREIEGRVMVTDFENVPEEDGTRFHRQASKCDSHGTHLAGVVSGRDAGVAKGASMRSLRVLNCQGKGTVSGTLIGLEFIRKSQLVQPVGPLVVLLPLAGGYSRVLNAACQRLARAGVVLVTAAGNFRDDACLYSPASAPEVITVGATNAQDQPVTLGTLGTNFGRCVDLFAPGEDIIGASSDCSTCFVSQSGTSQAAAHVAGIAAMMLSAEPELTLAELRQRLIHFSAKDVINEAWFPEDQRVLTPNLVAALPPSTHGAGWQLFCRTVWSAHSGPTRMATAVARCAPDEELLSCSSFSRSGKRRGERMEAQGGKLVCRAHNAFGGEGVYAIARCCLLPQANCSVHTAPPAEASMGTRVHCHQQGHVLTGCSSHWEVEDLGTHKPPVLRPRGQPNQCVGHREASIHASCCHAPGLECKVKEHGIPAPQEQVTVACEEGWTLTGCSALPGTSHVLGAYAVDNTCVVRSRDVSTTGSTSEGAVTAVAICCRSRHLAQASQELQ
Chain of human PCSK9 (Q8NBP7 31-152 partner limits assumed): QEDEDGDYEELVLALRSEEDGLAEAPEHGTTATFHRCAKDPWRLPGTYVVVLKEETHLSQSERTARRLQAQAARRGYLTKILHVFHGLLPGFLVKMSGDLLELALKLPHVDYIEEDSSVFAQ

SMILES	IC50 [2] [nM]	Max % inhibition [2] [%]	further results
C[C@H]1C(=O)N[C@@H](CO)C(=O)N(C)[C@@]2(Cc3ccc(Cl)cc3)CCCN(C2)C(=O)[C@H](Cc2cccc[n+]2[O-])CC(=O)N1Cc1c(F)cc(Cl)cc1Oc1ccc(-c2cnc(CN(C)C)n2C)cc1			ring closure, yield of all isomers ([1]; from C[C@H](NCc1c(F)cc(Cl)cc1Oc1ccc(-c2cnc(CN(C)C)n2C)cc1)C(=O)N[C@@H](CO)C(=O)N(C)[C@@]1(Cc2ccc(Cl)cc2)CCCN(C(=O)[C@@H](CC(=O)O)Cc2cccc[n+]2[O-])C1, HATU/HOAt/2,6-lutidine, 1.08 mM, 48.0 °C, 4.0 h): 98.8%
C[C@H]1C(=O)N[C@@H](CO)C(=O)N[C@@]2(Cc3ccc(Cl)cc3)CCCN(C2)C(=O)[C@H](Cc2ccccc2)OC(=O)N1Cc1ccc(Cl)cc1Oc1ccc(-c2cnc(CN(C)C)n2C)cc1.Cl [Compound 78, (3S,7S,10S,13R)-3-benzyl-6-(4-chloro-2-(4-(2-((dimethylamino)methyl)-1-methyl-1H-imidazol-5-yl)phenoxy)benzyl)-13-(4-chlorobenzyl)-10-(hydroxymethyl)-7-methyl-4-oxa-1,6,9,12-tetraazabicyclo[11.3.1]heptadecane-2,5,8,11-tetraone hydrochloride]	0.859	99.2	ring closure, yield of all isomers ([1]; from C[C@@H](C(=O)N[C@@H](CO)C(=O)N[C@@]1(Cc2ccc(Cl)cc2)CCCNC1)N(Cc1ccc(Cl)cc1Oc1ccc(-c2cnc(CN(C)C)n2C)cc1)C(=O)O[C@@H](Cc1ccccc1)C(=O)O, HATU/HOAt, 2,6-lutidine, 1.0 mM, 25.0 °C, 2.25 h, 2 steps): 38%
C[C@H]1C(=O)N[C@@H](CO)C(=O)N[C@@]2(Cc3ccc(Cl)cc3)CCCN(C2)C(=O)[C@H](Cc2cccc[n+]2[O-])CC(=O)N1Cc1ccc(Cl)cc1Oc1ccc(-c2cnc(CN3CCCC3)n2C)cc1			ring closure, yield of all isomers ([1]; from C[C@H](NCc1ccc(Cl)cc1Oc1ccc(-c2cnc(CN3CCCC3)n2C)cc1)C(=O)N1[C@H](C(=O)N[C@@]2(Cc3ccc(Cl)cc3)CCCN(C(=O)[C@@H](CC(=O)O)Cc3cccc[n+]3[O-])C2)COC1(C)C, HATU, 1.72 mM, 48.0 °C, 19.0 h, 2 steps): 33.3%
COC[C@@H]1NC(=O)[C@H](C)N(Cc2c(F)cc(Cl)cc2Oc2ccc(-c3cnc(CN(C)C)n3C)cc2)C(=O)C[C@@H](Cc2cccc(C)n2)C(=O)N2CCC[C@@](Cc3ccc(Cl)cc3)(C2)N(C)C1=O [Compound 13, (3R,7S,10S,13R)-6-(4-chloro-2-(4-(2-((dimethylamino)methyl)-1-methyl-1H-imidazol-5-yl)phenoxy)-6-fluorobenzyl)-13-(4-chlorobenzyl)-10-(methoxymethyl)-7,12-dimethyl-3-((6-methylpyridin-2-yl)methyl)-1,6,9,12-tetraazabicyclo[11.3.1]heptadecane-2,5,8,11-tetraone]	0.549	112.1	ring closure, yield of all isomers ([1]; from COC[C@H](NC(=O)[C@H](C)NCc1c(F)cc(Cl)cc1Oc1ccc(-c2cnc(CN(C)C)n2C)cc1)C(=O)N(C)[C@@]1(Cc2ccc(Cl)cc2)CCCN(C(=O)[C@@H](CC(=O)O)Cc2cccc(C)n2)C1, HATU/HOAt/2,6-lutidine, 1.59 mM, 48.0 °C, 16.0 h): 33%
C[C@H]1C(=O)N[C@@H](CO)C(=O)N(C)[C@@]2(Cc3ccc(Cl)cc3)CCCN(C2)C(=O)[C@H](Cc2cccc[n+]2[O-])CC(=O)N1Cc1ccc(Cl)cc1Oc1ccc(-c2cnc(CN(C)C)n2C)cc1			ring closure, yield of all isomers ([1]; from C[C@H](NCc1ccc(Cl)cc1Oc1ccc(-c2cnc(CN(C)C)n2C)cc1)C(=O)N[C@@H](CO)C(=O)N(C)[C@@]1(Cc2ccc(Cl)cc2)CCCN(C(=O)[C@@H](CC(=O)O)Cc2cccc[n+]2[O-])C1, HATU, 0.83 mM, 48.0 °C, 4.0 h): 100%
COC[C@@H]1NC(=O)[C@H](C)N(Cc2c(F)cc(Cl)cc2Oc2ccc(-c3cnc(CN(C(=O)OC(C)(C)C)C(C)(C)C)n3C)cc2)C(=O)C[C@@H](C2CC(F)(F)C2)C(=O)N2CCC[C@@](Cc3ccc(Cl)cc3)(C2)N(C)C1=O			ring closure, yield of all isomers ([1]; from COC[C@H](NC(=O)[C@H](C)NCc1c(F)cc(Cl)cc1Oc1ccc(-c2cnc(CN(C(=O)OC(C)(C)C)C(C)(C)C)n2C)cc1)C(=O)N(C)[C@@]1(Cc2ccc(Cl)cc2)CCCN(C(=O)[C@@H](CC(=O)O)C2CC(F)(F)C2)C1, HATU, 1.82 mM, 42.0 °C): 86%
C[C@H]1C(=O)N2[C@@H](COC2(C)C)C(=O)N[C@@]2(Cc3ccc(Cl)cc3)CCCN(C2)C(=O)[C@H](Cc2ccccc2)CC(=O)N1Cc1ccc(Cl)cc1Oc1ccc(-c2cnc(CN(C)C)n2C)cc1			ring closure, yield of all isomers ([1]; from C[C@H](NCc1ccc(Cl)cc1Oc1ccc(-c2cnc(CN(C)C)n2C)cc1)C(=O)N1[C@H](C(=O)N[C@@]2(Cc3ccc(Cl)cc3)CCCN(C(=O)[C@@H](CC(=O)O)Cc3ccccc3)C2)COC1(C)C, HATU, 1.04 mM, 45.0 °C): 69%
C[C@H]1C(=O)N[C@@H](CO)C(=O)N(C)[C@H](Cc2ccc(Cl)cc2)CN(C)C(=O)[C@H]([C@H]2COc3ccccc32)CC(=O)N1Cc1ccc(Cl)cc1Oc1ccc(-c2cnc(CN3CCCC3)n2C)cc1.Cl [Compound 102, (2S, 5S, 8R, 12S)-1-(4-chloro-2-(4-(1-methyl-2-(pyrrolidin-1-ylmethyl)-1H-imidazol-5-yl)phenoxy)benzyl)-8-(4-chlorobenzyl)-12-((R)-2,3-dihydrobenzofuran-3-yl)-5-(hydroxymethyl)-2,7,10-trimethyl-1,4,7,10-tetraazacyclotetradecane-3,6,11,14-tetraone]	1.38	100.8	
C[C@H]1C(=O)N[C@@H](CO)C(=O)N[C@@]2(Cc3ccc(Cl)cc3)CCCN(C2)C(=O)[C@H](Cc2cccnc2)CC(=O)N1Cc1ccc(Cl)cc1Oc1ccc(-c2cnc(CN(C)C)n2C)cc1.Cl [Compound 19, (3R,7S,10S,13R)-6-(4-chloro-2-(4-(2-((dimethylamino)methyl)-1-methyl-1H-imidazol-5-yl)phenoxy)benzyl)-13-(4-chlorobenzyl)-10-(hydroxymethyl)-7-methyl-3-(pyridin-3-ylmethyl)-1,6,9,12-tetraazabicyclo[11.3.1]heptadecane-2,5,8,11-tetraone hydrochloride]	0.45	105.3	
C[C@H]1C(=O)N[C@@H](CO)C(=O)N[C@@]2(Cc3ccc(Cl)cc3)CCCN(C2)C(=O)[C@H](Cc2ccccc2)CC(=O)N1Cc1ccc(Cl)cc1Oc1ccc(-c2nnc(CN(C)C)n2C)cc1 [Compound 56, (3R, 7S, 10S, 13R)-3-benzyl-6-(4-chloro-2-(4-(5-((dimethylamino)methyl)-4-methyl-4H-1,2,4-triazol-3-yl)phenoxy)benzyl)-13-(4-chlorobenzyl)-10-(hydroxymethyl)-7-methyl-1,6,9,12-tetraazabicyclo[11.3.1]heptadecane-2,5,8,11-tetraone]	0.425	101.7	

Now from value to compound, other results behind:

IC50 [2] [nM]	Max % inhibition [2] [%]	SMILES	further results
1490	76.9	CC(C)[C@H]1CC(=O)N(Cc2ccc(Cl)cc2Oc2ccc(-c3cnc(CN(C)C)n3C)cc2)[C@@H](C)C(=O)N[C@@H](CO)C(=O)N[C@@]2(Cc3ccc(Cl)cc3)CCCN(C2)C1=O.Cl [Compound 133, (3R,7S,10S,13R)-6-(4-chloro-2-(4-(2-((dimethylamino)methyl)-1-methyl-1H-imidazol-5-yl)phenoxy)benzyl)-13-(4-chlorobenzyl)-10-(hydroxymethyl)-3-isopropyl-7-methyl-1,6,9,12-tetraazabicyclo[11.3.1]heptadecane-2,5,8,11-tetraone hydrochloride]	ring closure, yield of all isomers ([1]; from CC(C)[C@@H](CC(=O)N(Cc1ccc(Cl)cc1Oc1ccc(-c2cnc(CN(C)C)n2C)cc1)[C@@H](C)C(=O)N[C@@H](CO)C(=O)N[C@@]1(Cc2ccc(Cl)cc2)CCCNC1)C(=O)O, HATU, 1.0 mM, 25.0 °C, 17.0 h): 59%
1.25	114.0	COC[C@@H]1NC(=O)[C@H](C)N(Cc2c(F)cc(Cl)cc2Oc2ccc(-c3cnc(CN(C)C)n3C)cc2)C(=O)C[C@@H](Cc2ccccc2)C(=O)N2CCC[C@@](Cc3ccc(Cl)cc3)(C2)N(C)C1=O [Compound 159, (3R, 7S, 10S, 13R)-3-benzyl-6-(4-chloro-2-(4-(2-((dimethylamino)methyl)-1-methyl-1H-imidazol-5-yl)phenoxy)-6-fluorobenzyl)-13-(4-chlorobenzyl)-10-(methoxymethyl)-7,12-dimethyl-1,6,9,12-tetraazabicyclo[11.3.1]heptadecane-2,5,8,11-tetraone]	
612	100.1	C[C@H](NCc1ccc(Cl)cc1Oc1ccc(-c2cnc(CN(C)C)n2C)cc1)C(=O)N[C@H]1COC(=O)C[C@@H](Cc2ccccc2)C(=O)N2CCC[C@@](Cc3ccc(Cl)cc3)(C2)N(C)C1=O [Compound 126, (2S)-N-((3R, 8S, 11R)-3-benzyl-11-(4-chlorobenzyl)-10-methyl-2,5,9-trioxo-6-oxa-1,10-diazabicyclo[9.3.1]pentadecan-8-yl)-2-((4-chloro-2-(4-(2-((dimethylamino)methyl)-1-methyl-1H-imidazol-5-yl)phenoxy)benzyl)amino)propanamide]	
0.85	105.4	CNCc1ncc(-c2ccc(Oc3cc(Cl)ccc3CN3C(=O)C[C@@H](Cc4ccccc4)C(=O)N4CCC[C@@](Cc5ccc(Cl)cc5)(C4)NC(=O)[C@H](CO)NC(=O)[C@@H]3C)cc2)n1C [Compound 150, (3R, 7S, 10S, 13R)-3-benzyl-6-(4-chloro-2-(4-(1-methyl-2-((methylamino)methyl)-1H-imidazol-5-yl)phenoxy)benzyl)-13-(4-chlorobenzyl)-10-(hydroxymethyl)-7-methyl-1,6,9, 12-tetraazabicyclo[11.3.1]heptadecane-2,5,8,11-tetraone]	
